Data from patent US20240287131A1, “PEPTIDE” (AGC Inc., priority 2021, published 2024).

Test system: HeLa cells
Assay: Evaluation of ability to permeate cell membrane (uptake into cells, flow cytometry of Alexa Fluor 647 fluorescence)
Type: cell-based
Conditions: 1.5 μM sample solution, 37° C., 1 hour; ratio to fluorescent dye 1
Protocol: A DMSO solution of the synthesized peptide fluorescent conjugates 1, 4, and 5, and fluorescent dye 1 was diluted using a DMEM low-glucose culture solution to a concentration of 1.5 μM, the concentration of the DMSO contained was adjusted to 0.15%, and the resulting solution was used as a sample solution for a cell membrane permeability test.
HeLa cells were seeded in a 96-well cell culture plate 24 hours before peptide treatment (0.5×10^5 cells/well).
The medium of HeLa cells pre-cultured at 37° C. for 24 hours was replaced with a sample solution of the peptide fluorescent conjugates 1, 4, and 5 and the fluorescent dye 1, and the ability to permeate a cell membrane after culturing at 37° C. for 1 hour was evaluated. […] The collected cells were analyzed by flow cytometry (guava easyCyte (trademark) 8) measuring red 2 fluorescence (661/15 nm) for detecting the fluorescent dye (Alexa Fluor647) introduced into the peptide fluorescent conjugate.
Using sample solutions of the peptide fluorescent conjugates 1 and 2, TAT-Alexa, and the fluorescent dye 1 prepared in the same manner as in Test Example 1, the red 2 fluorescence (661/15 nm) was measured and analyzed by flow cytometry by the same procedure as in Test Example 1. […]

TAT-Alexa: Alexa Fluor 647 C2 Maleimide added to the terminal Cys of Cys-TAT(47-57), commercially available cell-penetrating peptide (YGRKKRRQRRR; N-terminal Cys with Alexa Fluor 647; C-terminal amide; printed: Tyr-Gly-Arg-Lys-Lys-Arg-Arg-Gln-Arg-Arg-Arg-)
average value of the fluorescence intensities of Alexa Fluor 647 in cells (MFI) relative to cells treated with the fluorescent dye 1: about double
